{"source": "paper PMC12505902", "about": "“Inhibitors of trehalose-6-phosphate synthase activity in fungal pathogens compromise thermal tolerance pathways” (mBio, 2025)", "key": {"[1]": {"target": "T1, 6xHis-CaTps1 (Candida albicans, UniProt Q92410)", "T1 construct": "Briefly, the full-length; thrombin cleavage site (pET-28a linker) (N); made in house; host or cells: E. coli BL21(DE3)pLysS", "T1 sequence (Q92410 1-478)": "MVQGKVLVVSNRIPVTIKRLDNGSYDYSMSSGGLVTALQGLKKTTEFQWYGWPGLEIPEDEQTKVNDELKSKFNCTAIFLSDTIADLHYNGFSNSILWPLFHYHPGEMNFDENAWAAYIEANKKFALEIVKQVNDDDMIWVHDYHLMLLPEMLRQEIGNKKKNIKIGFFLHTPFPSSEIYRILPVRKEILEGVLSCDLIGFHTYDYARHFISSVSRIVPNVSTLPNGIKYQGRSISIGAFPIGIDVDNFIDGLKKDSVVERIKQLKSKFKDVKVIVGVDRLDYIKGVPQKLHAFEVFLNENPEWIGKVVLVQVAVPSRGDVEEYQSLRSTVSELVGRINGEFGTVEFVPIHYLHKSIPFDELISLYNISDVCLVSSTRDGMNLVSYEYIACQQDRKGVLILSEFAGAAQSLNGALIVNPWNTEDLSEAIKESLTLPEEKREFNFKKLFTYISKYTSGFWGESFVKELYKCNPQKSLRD", "test": "Glo-melt thermal shift assay", "type": "binding", "details": "1 µM protein, 2 mM 4456dh (Fig 2 legend), incubated overnight at 4°C", "description": "(§1) Fig 2 4456dh binds Tps1 and inhibits Tps1 activity. (A) Structure of 4456dh. (B and C) Glo-melt thermal shift assays reveal 4456dh destabilizes 6xHis-CaTps1 (B) and 6xHis-CnTps1 (C). The first derivative of the raw data was used to determine the melting temperature of 1 µM 6xHis-CaTps1 (B) and 1 µM 6xHis-CnTps1 (C) treated without (black) or with 2 mM 4456dh (red). […] The resulting dose-response curves were fitted to a one-site binding model to extract Kd values; the SD was calculated using the Kd values from each independent experiment (n = 3). (F) Tps1 enzyme activity assay with 5 µM 6xHis-CaTps1 (F) and 6xHis-CnTps1 (G) ±1 mM 4456dh. Error bars represent SE. Comparison to control, untreated 6xHis-CaTps1, was performed using Student’s t-test; **P < 0.01 and ***P < 0.001.\n(§2) Thermal shift assays were completed to determine if 4456dh binds Tps1. […]\n(§3) 82 determined by SDS-PAGE analysis, were pooled and concentrated to 1 mg/mL for downstream […]\n(§4) 93 The data were acquired with MO.Control 1.5.3 (NanoTemper Technologies GmbH). Recorded\n(§5) 94 data were analyzed with MO.Affinity Analysis 2.2.7 (NanoTemper Technologies GmbH). […]\n(§6) 100 2X Glo-melt dye. Thermal denaturation was measured using an RT-PCR thermocycler (BioRad) […]\n(§7) 102 determined by identifying the inflection point of the derivative data. […]\n(§8) 104 The catalytic activity of C. albicans Tps1 and C. neoformans Tps1 was measured via a continuous […]"}, "[2]": {"target": "6xHis-CnTps1 (Cryptococcus neoformans var. grubii, UniProt J9VJZ1)", "sequence (J9VJZ1 entry or part of it)": "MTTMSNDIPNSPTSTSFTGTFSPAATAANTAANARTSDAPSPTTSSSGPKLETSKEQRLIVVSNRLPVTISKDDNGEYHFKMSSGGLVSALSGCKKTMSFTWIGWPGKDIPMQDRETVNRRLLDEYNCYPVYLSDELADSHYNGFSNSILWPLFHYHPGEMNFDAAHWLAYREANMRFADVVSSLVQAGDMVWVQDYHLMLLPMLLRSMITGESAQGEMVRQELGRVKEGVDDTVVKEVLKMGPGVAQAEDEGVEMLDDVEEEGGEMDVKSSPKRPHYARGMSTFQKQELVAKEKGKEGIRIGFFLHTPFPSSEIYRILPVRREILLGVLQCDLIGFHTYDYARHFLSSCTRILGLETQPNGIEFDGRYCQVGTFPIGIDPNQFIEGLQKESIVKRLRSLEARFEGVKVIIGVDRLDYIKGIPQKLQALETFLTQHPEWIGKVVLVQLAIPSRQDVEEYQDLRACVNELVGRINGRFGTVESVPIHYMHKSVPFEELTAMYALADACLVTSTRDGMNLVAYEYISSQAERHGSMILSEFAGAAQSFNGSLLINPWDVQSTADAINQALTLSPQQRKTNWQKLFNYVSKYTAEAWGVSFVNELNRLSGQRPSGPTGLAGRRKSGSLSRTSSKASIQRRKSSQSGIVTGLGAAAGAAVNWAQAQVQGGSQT", "test": "Glo-melt thermal shift assay", "type": "binding", "details": "1 µM protein, 2 mM 4456dh (Fig 2 legend), incubated overnight at 4°C", "description": "as §1, §2, §3, §4, §5, §6, §7, §8"}}}
{"smiles": "Cn1cc(-c2csc(NC(=O)Cc3ccccn3)n2)cn1", "note": "[Compound 4456dh]", "values": [{"measurement": "effect on melting temperature", "setting": "[1]", "result": "decreased the melting temperature"}, {"measurement": "effect on melting temperature", "setting": "[2]", "result": "decreased the melting temperature"}]}
